{"source": "patent US20060167298A1", "about": "“Sulfated diglyceride derivatives, salts thereof, and processes for their preparation” (priority 2005, published 2006)", "key": {"[1]": {"assay": "Foam test: solution shaken in a graduated cylinder", "format": "physicochemical", "procedure": "Dioctanoyl glyceride (6.88 grams; 0.02 mole), sulfamic acid (2.14 gram; 0.022 mole) and ammonium sulfamate (0.34 gram; 0.00298 mole) were heated with stirring at 120-125° C. for 3 hours. The reaction mixture was a somewhat viscous brown liquid. The reaction mixture was treated with water to make a 10% solution by weight, and centrifuged to recover unreacted diglyceride."}, "[2]": {"assay": "Surface tension of aqueous solution at 25° C.", "format": "physicochemical"}, "[3]": {"settings": "20 ml of the 0.1% solution shaken in a 100 ml graduated cylinder for 20 full cycles"}, "[4]": {"settings": "0.1% by weight aqueous solution of the reaction mixture"}, "[5]": {"settings": "0.12% aqueous solution of the product in distilled water"}}}
{"compound": "CCCCCCCC(=O)OCC(COS(=O)(=O)O)OC(=O)CCCCCCC.N", "note": "(centres unmarked) [Example 1 (ammonium salt), Sulfated Dioctanoyl Glyceride]", "values": [{"measurement": "foam persistence", "setting": "[1]; [3]", "value": "one hour or more"}, {"measurement": "foam produced", "setting": "[1]; [3]", "value": 45, "unit": "mL"}, {"measurement": "surface tension at 25° C.", "setting": "[2]; [4]", "value": 25.4, "unit": "mN/m"}]}
{"compound": "CCCCCCCC(=O)OCC(COS(=O)(=O)O)OC(=O)CCCCCCC.N", "note": "(centres unmarked) [Example 1 (sodium salt), Sulfated Dioctanoyl Glyceride]", "values": [{"measurement": "surface tension at 25° C.", "setting": "[2]; [4]", "value": 26.3, "unit": "mN/m"}]}
{"compound": "CCCCCC(=O)OCC(COS(=O)(=O)O)OC(=O)CCCCC.N", "note": "(centres unmarked) [Example 2, Ammonium Salt of Sulfated Dihexanoyl Glyceride]", "values": [{"measurement": "surface tension at 25° C.", "setting": "[2]; 0.4% by weight aqueous solution of the reaction mixture", "value": 31.9, "unit": "mN/m"}]}
{"compound": "CCCCCC(=O)OCC(COS(=O)(=O)O)OC(=O)CCCCC.N", "note": "(centres unmarked) [Example 6 I, Ammonium Salt of Sulfated Dihexanoyl Glyceride]", "values": [{"measurement": "surface tension at 25° C.", "setting": "[2]; 0.42% aqueous solution of the product", "value": 35.6, "unit": "mN/m"}]}
{"compound": "Mixed Morpholinium, Ammonium Salt of Sulfated Dihexanoyl Glyceride [Example 3]", "values": [{"measurement": "surface tension at 25° C.", "setting": "[2]; 0.44% aqueous solution of the reaction mixture", "value": 36.5, "unit": "mN/m"}]}
{"compound": "Mixed Sodium and Ammonium Salt of Sulfated Dihexanoyl Glyceride [Example 6 II]", "values": [{"measurement": "surface tension at 25° C.", "setting": "[2]; 0.42% (by weight) solution of the reaction mixture, diluted from 10% solution (pH about 9) after centrifugation", "value": 35.0, "unit": "mN/m"}]}
{"compound": "Sodium Salt of Sulfated Dioctanoyl Glyceride [Example 5]", "values": [{"measurement": "foaming (observed)", "setting": "[1]; [5]", "value": "foam very well"}, {"measurement": "surface tension at 25° C.", "setting": "[2]; [5]", "value": 26.8, "unit": "mN/m"}]}
{"compound": "Sodium Salt of Sulfonated Didecanoyl Glyceride [Example 4]", "values": [{"measurement": "surface tension at 25° C.", "setting": "[2]; 0.1 g sample of reaction mixture dissolved in distilled water, neutralized to pH about 8 with NaOH", "value": 25.9, "unit": "mN/m"}]}
